# Measured values from PubChem BioAssay (NCI).
#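 Results reflect a 48-hour exposure of cells in 96-well plates to compound at five concentrations. TGI marks complete inhibition of growth.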
# How the values were obtained:
# Experiment in all cases: growth of human tumour cells (NCI), 48 h
# 786-0 renal = tested on: 786-0 renal
# A498 renal = tested on: A498 renal
# A549 NSCLC = tested on: A549 NSCLC
# ACHN renal = tested on: ACHN renal
# BT-549 breast = tested on: BT-549 breast
# CAKI-1 renal = tested on: CAKI-1 renal
# CCRF-CEM leukemia = tested on: CCRF-CEM leukemia
# COLO 205 colon = tested on: COLO 205 colon
# DU-145 prostate = tested on: DU-145 prostate
# EKVX NSCLC = tested on: EKVX NSCLC
# HCC-2998 colon = tested on: HCC-2998 colon
# HCT-116 colon = tested on: HCT-116 colon
# HCT-15 colon = tested on: HCT-15 colon
# HL-60(TB) leukemia = tested on: HL-60(TB) leukemia
# HOP-62 NSCLC = tested on: HOP-62 NSCLC
# HOP-92 NSCLC = tested on: HOP-92 NSCLC
# HS 578T breast = tested on: HS 578T breast
# HT29 colon = tested on: HT29 colon
# IGROV1 ovarian = tested on: IGROV1 ovarian
# K-562 leukemia = tested on: K-562 leukemia
# KM12 colon = tested on: KM12 colon
# LOX IMVI melanoma = tested on: LOX IMVI melanoma
# M14 melanoma = tested on: M14 melanoma
# MALME-3M melanoma = tested on: MALME-3M melanoma
# MCF7 breast = tested on: MCF7 breast
# MDA-MB-231 breast = tested on: MDA-MB-231 breast
# MDA-MB-435 = tested on: MDA-MB-435
# MDA-N = tested on: MDA-N
# MOLT-4 leukemia = tested on: MOLT-4 leukemia
# NCI-H226 lung = tested on: NCI-H226 lung
# NCI-H23 lung = tested on: NCI-H23 lung
# NCI-H460 lung = tested on: NCI-H460 lung
# NCI-H522 lung = tested on: NCI-H522 lung
# NCI/ADR-RES ovarian = tested on: NCI/ADR-RES ovarian
# OVCAR-3 ovarian = tested on: OVCAR-3 ovarian
# OVCAR-4 ovarian = tested on: OVCAR-4 ovarian
# OVCAR-5 ovarian = tested on: OVCAR-5 ovarian
# OVCAR-8 ovarian = tested on: OVCAR-8 ovarian
# PC-3 prostate = tested on: PC-3 prostate
# RPMI-8226 leukemia = tested on: RPMI-8226 leukemia
# RXF 393 renal = tested on: RXF 393 renal
# SF-268 CNS = tested on: SF-268 CNS
# SF-295 CNS = tested on: SF-295 CNS
# SF-539 CNS = tested on: SF-539 CNS
# SK-MEL-2 melanoma = tested on: SK-MEL-2 melanoma
# SK-MEL-28 melanoma = tested on: SK-MEL-28 melanoma
# SK-MEL-5 melanoma = tested on: SK-MEL-5 melanoma
# SK-OV-3 ovarian = tested on: SK-OV-3 ovarian
# SN12C renal = tested on: SN12C renal
# SNB-19 CNS = tested on: SNB-19 CNS
# SNB-75 CNS = tested on: SNB-75 CNS
# SR leukemia = tested on: SR leukemia
# SW-620 colon = tested on: SW-620 colon
# T-47D breast = tested on: T-47D breast
# TK-10 renal = tested on: TK-10 renal
# U251 CNS = tested on: U251 CNS
# UACC-257 melanoma = tested on: UACC-257 melanoma
# UACC-62 melanoma = tested on: UACC-62 melanoma
# UO-31 renal = tested on: UO-31 renal
compound,measurement,setting,value
COc1ccc(NS(=O)(=O)c2ccc(NC(NC(=O)CC(C)C)(C(F)(F)F)C(F)(F)F)cc2)nn1,TGI,786-0 renal,> 100 µM
same,TGI,A498 renal,> 100 µM
same,TGI,A549 NSCLC,> 100 µM
same,TGI,ACHN renal,> 100 µM
same,TGI,BT-549 breast,> 100 µM
same,TGI,CAKI-1 renal,> 100 µM
same,TGI,CCRF-CEM leukemia,> 100 µM
same,TGI,COLO 205 colon,> 100 µM
same,TGI,DU-145 prostate,> 100 µM
same,TGI,EKVX NSCLC,> 100 µM
same,TGI,HCC-2998 colon,> 100 µM
same,TGI,HCT-116 colon,> 100 µM
same,TGI,HCT-15 colon,> 100 µM
same,TGI,HL-60(TB) leukemia,> 100 µM
same,TGI,HOP-62 NSCLC,> 100 µM
same,TGI,HOP-92 NSCLC,> 100 µM
same,TGI,HS 578T breast,> 100 µM
same,TGI,HT29 colon,> 100 µM
same,TGI,IGROV1 ovarian,> 100 µM
same,TGI,K-562 leukemia,> 100 µM
same,TGI,KM12 colon,> 100 µM
same,TGI,LOX IMVI melanoma,> 100 µM
same,TGI,M14 melanoma,> 100 µM
same,TGI,MALME-3M melanoma,> 100 µM
same,TGI,MCF7 breast,> 100 µM
same,TGI,MDA-MB-231 breast,> 100 µM
same,TGI,MDA-MB-435,> 100 µM
same,TGI,MDA-N,> 100 µM
same,TGI,MOLT-4 leukemia,> 100 µM
same,TGI,NCI-H226 lung,> 100 µM
same,TGI,NCI-H23 lung,> 100 µM
same,TGI,NCI-H460 lung,> 100 µM
same,TGI,NCI-H522 lung,> 100 µM
same,TGI,NCI/ADR-RES ovarian,> 100 µM
same,TGI,OVCAR-3 ovarian,> 100 µM
same,TGI,OVCAR-4 ovarian,> 100 µM
same,TGI,OVCAR-5 ovarian,> 100 µM
same,TGI,OVCAR-8 ovarian,> 100 µM
same,TGI,PC-3 prostate,> 100 µM
same,TGI,RPMI-8226 leukemia,> 100 µM
same,TGI,RXF 393 renal,> 100 µM
same,TGI,SF-268 CNS,> 100 µM
same,TGI,SF-295 CNS,> 100 µM
same,TGI,SF-539 CNS,> 100 µM
same,TGI,SK-MEL-2 melanoma,> 100 µM
same,TGI,SK-MEL-28 melanoma,> 100 µM
same,TGI,SK-MEL-5 melanoma,> 100 µM
same,TGI,SK-OV-3 ovarian,> 100 µM
same,TGI,SN12C renal,> 100 µM
same,TGI,SNB-19 CNS,> 100 µM
same,TGI,SNB-75 CNS,> 100 µM
same,TGI,SR leukemia,> 100 µM
same,TGI,SW-620 colon,> 100 µM
same,TGI,T-47D breast,> 100 µM
same,TGI,TK-10 renal,> 100 µM
same,TGI,U251 CNS,> 100 µM
same,TGI,UACC-257 melanoma,> 100 µM
same,TGI,UACC-62 melanoma,> 100 µM
same,TGI,UO-31 renal,> 100 µM
N#CC1=C(N)N(c2ccccc2)C(c2ccccc2)C1(C#N)C#N (stereo unspecified),TGI,786-0 renal,32.6 µM
same,TGI,A498 renal,33.6 µM
same,TGI,A549 NSCLC,45.2 µM
same,TGI,ACHN renal,40.7 µM
same,TGI,BT-549 breast,37 µM
same,TGI,CAKI-1 renal,> 100 µM
same,TGI,CCRF-CEM leukemia,33.7 µM
same,TGI,COLO 205 colon,36.1 µM
same,TGI,DU-145 prostate,32.9 µM
same,TGI,EKVX NSCLC,43.8 µM
same,TGI,HCC-2998 colon,30.2 µM
same,TGI,HCT-116 colon,29.4 µM
same,TGI,HCT-15 colon,51.1 µM
same,TGI,HL-60(TB) leukemia,43.9 µM
same,TGI,HOP-62 NSCLC,36.8 µM
same,TGI,HS 578T breast,> 100 µM
same,TGI,HT29 colon,30.2 µM
same,TGI,IGROV1 ovarian,32 µM
same,TGI,K-562 leukemia,26.5 µM
same,TGI,KM12 colon,30.9 µM
same,TGI,LOX IMVI melanoma,30.3 µM
same,TGI,M14 melanoma,44.9 µM
same,TGI,MALME-3M melanoma,35.6 µM
same,TGI,MCF7 breast,31.7 µM
same,TGI,MDA-MB-231 breast,29.8 µM
same,TGI,MDA-MB-435,35.6 µM
same,TGI,MDA-N,41 µM
same,TGI,MOLT-4 leukemia,31.7 µM
same,TGI,NCI-H226 lung,36.2 µM
same,TGI,NCI-H23 lung,44.8 µM
same,TGI,NCI-H522 lung,34.9 µM
same,TGI,NCI/ADR-RES ovarian,45.3 µM
same,TGI,OVCAR-3 ovarian,34.6 µM
same,TGI,OVCAR-4 ovarian,51.1 µM
same,TGI,OVCAR-5 ovarian,37.3 µM
same,TGI,OVCAR-8 ovarian,33.5 µM
same,TGI,PC-3 prostate,40.3 µM
same,TGI,RPMI-8226 leukemia,37 µM
same,TGI,RXF 393 renal,33.6 µM
same,TGI,SF-268 CNS,55.4 µM
same,TGI,SF-295 CNS,61.1 µM
same,TGI,SF-539 CNS,32.5 µM
same,TGI,SK-MEL-2 melanoma,42.9 µM
same,TGI,SK-MEL-28 melanoma,31.1 µM
same,TGI,SK-MEL-5 melanoma,26.9 µM
same,TGI,SK-OV-3 ovarian,78.4 µM
same,TGI,SN12C renal,36.6 µM
same,TGI,SNB-19 CNS,43.2 µM
same,TGI,SNB-75 CNS,42 µM
same,TGI,SR leukemia,40.5 µM
same,TGI,SW-620 colon,37.2 µM
same,TGI,T-47D breast,24.4 µM
same,TGI,TK-10 renal,31.8 µM
same,TGI,U251 CNS,32.4 µM
same,TGI,UACC-257 melanoma,34.9 µM
same,TGI,UACC-62 melanoma,45.7 µM
same,TGI,UO-31 renal,34.8 µM
